Assay results published in patent US8211445B2, “PSM peptides as vaccine targets against methicillin-resistant Staphylococcus” (The United States of America, as represented by the …, priority 2007, dated 2012).
Residues, ends and D or L forms follow the SMILES beside them. No end group written: not given here. *: point of attachment. For = O=C*

How the values were obtained:
sheep red blood cells = assay: Hemolysis of sheep red blood cells; assay type: cell-based; settings: 10 μg/ml, compared to other PSMs (FIG. 21G)
Description: FIG. 8 includes several graphs showing hemolytic activities of PSMs. […] In FIGS. 8A and 8B, the data are mean±SEM of three independent measurements. P values are vs. DMSO in FIG. 8A and vs. wild-type in FIG. 8B. Hemolytic activity was determined by incubating samples with a 2% (v/v) suspension of sheep red blood cells and incubation at 37° C. for 1 hour. Synthetic PSM peptides or filtered bacterial overnight culture supernatants were diluted in PBS and added to sheep erythrocytes at a final concentration of 10 μg/ml for the peptides and 1:200 for culture filtrates.
Hemolysis: Hemolytic activity of PSM peptides was determined by incubating samples with a 2% (v/v) sheep red blood cells and incubation for 1 h at 37° C. as described (Wang et al., Nature Med. 13:1510-1514, 2007). Hemolytic activity of S. aureus wild-type and psm-mec deletion strains was assessed by streaking on sheep blood agar plates.

MRSA strains = settings: cited from earlier work
[1] = Immunization of mice with synthetic PSM peptides, PSM-specific antibodies by ELISA; assay type: in vivo, mice (BALB/c); settings: 50 μg s.c. with CFA, booster with IFA
Description: In order to determine the immunogenicity of synthetic PSM peptides, mice (BALB/c, female, 6-8 weeks) were injected subcutaneously with 50 μg (100 μL) of each PSM peptide in sterile PBS emulsified with complete Freund's adjuvant (CFA) for primary immunization. A booster injection containing incomplete Freund's adjuvant (IFA) instead of CFA was given to the animals 14 days after the primary immunization. The control group of animals received injections of sterile PBS and adjuvants only. Three blood withdrawals were performed on each mouse. The first two blood samples were collected via retro-orbital route immediately before primary injection and before booster injection, respectively. All animals were sacrificed 21 days after booster injection for the terminal blood samples.
PSM-specific antibodies in mouse serum were determined by ELISA assays. Microtiter plates (Nunc 96-well flat-bottom MaxiSorp plates) were coated with 20 μg/ml of each synthetic PSM peptides in PBS plus 0.05% NaN3, and incubated overnight at 4° C. The plates were washed with PBS containing 0.05% Tween-20, and blocked for 1 hour at room temperature with 1% BSA (Sigma) and 0.05% NaN3 in PBS. Serum samples were diluted in assay diluent (Tris-buffered saline containing 0.1% BSA and 0.05% Tween-20, pH 7.2), and added to the washed wells at 100 μl/well for an incubation of 2 hours at room temperature. Plates were washed again and HRP-labeled goat anti-mouse IgG (R&D Systems) and goat anti-mouse IgM (Jackson ImmunoResearch Laboratory) were diluted in assay diluent and added to the plates at 100 μl/well for an incubation of 1 hour at room temperature in order to detect PSM specific mouse IgG and IgM, respectively. Plates were washed again and a substrate solution containing equal volume of Tetramethylbenzidine and H2O2 was added to the plates at 100 μl/well for color development. The reaction was terminated by adding 50 μl of 1 M H2SO4 to each well, and optical density (O.D.) was measured at 450 nm using an ELISA plate reader.

human neutrophils [2] = assay: Lysis of human neutrophils (release of lactate dehydrogenase); assay type: cell-based; design: key to Neutrophil lysis: x: reduced activity; xx: strongly reduced activity; settings: for ability to promote neutrophil lysis: compared with wild type PSMα3; for Neutrophil lysis: pro-inflammatory activity of PSMα3 mutants, relative to wild type PSMα3
Description: (§1) Lysis of PMNs by synthetic PSMs or clarified S. aureus culture media was determined essentially as described (Voyich et al., J Infect Dis 194, 1761-70, 2006; Voyich et al., J Immunol 175, 3907-19, 2005). Synthetic PSMs (1 or 10 μg/ml) were added to wells of a 96-well tissue culture plate containing 10^6 PMNs and plates were incubated at 37° C. for up to 3 hours. At the desired times, PMN lysis was determined by release of lactate dehydrogenase (LDH; Cytotoxicity Detection Kit, Roche Applied Sciences). Alternatively, wild-type and isogenic mutant S. aureus strains were cultured for 18 hours at 37° C. in 50 ml TSB with shaking using a 100 ml flask. Bacteria were removed by centrifugation and culture media were sterilized by filtration and stored at −80° C. in aliquots until used. Culture medium was diluted 1:10 in RPMI/H, mixed with human PMNs (10^6) and tested for its ability to cause PMN lysis.
as §1, with “above in Example 2.” for “(Voyich et al., J Infect Dis 194, 1761-70, 2006; Voyich et al., J Immunol 175, 3907-19, 2005).”
(§2) Human neutrophil assays: Human neutrophil isolation, chemotaxis, calcium ion flux, priming, lysis assays, and measurement of IL-8 production were performed as described in Example 2.

human neutrophils [3] = assay: Priming of human neutrophils (surface expression of CD11b and gp91phox); assay type: cell-based; design: key to CD11b: x: reduced activity; xx: strongly reduced activity; settings: for ability to increase CD11b expression: compared with wild type PSMα3; for CD11b: surface expression of CD11b on human neutrophils, relative to wild type PSMα3
Description: (§3) Priming of PMNs by synthetic PSMs was determined by increased surface expression of CD11b and gp91phox (granule exocytosis). PMNs were incubated with 10-10,000 ng/ml PSM, 10 μM fMLP, 10 ng/ml lipopolysaccharide, or 10 μg/ml lipoteichoic acid in 96-well tissue culture plates at 37° C. with rotation for 60 minutes. The assay was terminated by centrifuging cells at 4° C. for 8 minutes at 350×g. Cells were washed twice in cold Dulbecco's phosphate-buffered saline and stained with and isotype control antibody (BD Biosciences) or those specific for CD11b (mAb 44, BD Biosciences) or gp91phox (mAb 7D533). Propidium iodide (0.5 μg/ml) was used to identify dead cells. PMNs were analyzed on a FACSCalibur flow cytometer (Becton Dickinson) and dead cells were excluded with a single gate. Percent positive neutrophils were determined with a marker defined by the boundary of the isotype-matched control antibody.
as §3, with “10-10000” for “10-10,000”, “7D5).” for “7D533).”
as §2

human PMN = assay: Measurement of cytokine production by human PMN (ELISA); assay type: cell-based; design: key to IL-8: x: reduced activity; xx: strongly reduced activity; settings: for IL-8 secretion: compared with wild type PSMα3; for IL-8: secretion of IL-8 by human neutrophils, relative to wild type PSMα3
Description: After isolation and washing, PMN or PBMC were resuspended in RPMI 1640 medium (Sigma) supplemented with 10% human serum, 2 mM L-glutamine, 100 U/ml penicillin, 100 μg/ml streptomycin, 2 mM sodium pyruvate, and 10 mM HEPES. Cells were distributed to a 96-well culture plate at 200 μl and 5×10^5 cells per well. Synthetic PSM peptides or filtered bacterial culture supernatants were diluted in fresh culture medium and added to the plate at 100 μl/well. Plates were incubated at 37° C. in a 5.5% CO2 incubator for 5 hours. Then, the plate was centrifuged at 1500 rpm for 10 minutes, and supernatant was harvested from each well. Mono Mac 6 cells were obtained from DSMZ (Germany), and were grown in RPMI 1640 plus 10% heat inactivated fetal bovine serum (HyClone), 2 mM L-glutamine, 10.0 units/ml penicillin, 10.0 μg/ml streptomycin, 0.2× non-essential amino acid solution, and OPI medium supplement (Sigma). Cells were grown in T75 culture flasks in a 37° C. CO2 incubator and harvested by centrifugation. After removal of supernatant, cells were resuspended in fresh culture medium, counted, and distributed into a 96-well cell culture plate at 100 μl and 2.5×10^5 cells per well. Phorbol 12-myristate 13-acetate (Sigma) was added to a final concentration of 2.5 ng/ml for cell pre-stimulation. The plate was incubated in a 37° C. CO2 incubator for 3 hours. At the end of the pre-stimulation period, synthetic PSM peptides were diluted in culture medium and added to the cells at 100 μl/well. Cells were incubated in a 37° C. CO2 incubator for 20-22 hours, and the plate was centrifuged at 1500 rpm for 10 minutes. Human TNF-α, IL-1β, IL-8, and mouse TNF-α were measured in the culture supernatants with commercial ELISA assay kits (R&D systems) according to the manufacturer's instructions.
as §2

[4] = N-formylated synthetic PSM peptides, BALB/c mice (FIG. 11)
[5] = non N-formylated synthetic PSM peptides, BALB/c mice (FIG. 12)

Row | Compound | Neutrophil lysis (human neutrophils [2]) | IL-8 (human PMN) | further results
1 | CC[C@H](C)[C@H](NC(=O)[C@H](CS)NC(=O)[C@@H](NC(=O)[C@H](CCCCN)NC(=O)[C@@H](NC(=O)[C@H](CC(C)C)NC(=O)[C@H](CC(=O)O)NC(=O)[C@@H](NC(=O)[C@@H](NC(=O)[C@H](CO)NC(=O)[C@@H](NC(=O)[C@@H](NC(=O)[C@@H](NC(=O)CNC(=O)[C@@H](NC(=O)[C@H](Cc1ccccc1)NC(=O)[C@H](CC(=O)O)NC(=O)[C@H](CCSC)NC=O)[C@@H](C)O)C(C)C)[C@@H](C)CC)[C@@H](C)O)[C@@H](C)CC)[C@@H](C)CC)[C@@H](C)CC)[C@@H](C)O)C(=O)N[C@@H](CCC(N)=O)C(=O)N[C@@H](C)C(=O)N[C@@H](Cc1ccccc1)C(=O)NCC(=O)O [PSM-mec] (HELM PEPTIDE1{[O=C[*:2]].M.D.F.T.G.V.I.T.S.I.I.D.L.I.K.T.C.I.Q.A.F.G}$$$$V2.0) |  |  | lysis of sheep erythrocytes (sheep red blood cells): intermediate range
2 | CN[C@H](CC(C)C)C(=O)N[C@H]1C(=O)N[C@@H](CC(N)=O)C(=O)N[C@H]2C(=O)N[C@H]3C(=O)N[C@H](C(=O)N[C@H](C(=O)O)c4cc(O)cc(O)c4-c4cc3ccc4O)[C@H](O)c3ccc(c(Cl)c3)Oc3cc2cc(c3O[C@@H]2O[C@H](CO)[C@@H](O)[C@H](O)[C@H]2O[C@H]2C[C@](C)(N)[C@H](O)[C@H](C)O2)Oc2ccc(cc2Cl)[C@H]1O [vancomycin] |  |  | minimum inhibitory concentration [MIC] (MRSA strains; MRSA strains with decreased susceptibility to vancomycin): 8 to 16 µg/mL; MIC (MRSA strains; strains fully resistant to vancomycin): ≥ 32 µg/mL
3 | MAIVGTIIKIIKAIIDIFAK [PSMα4] |  |  | specific antibody production in vivo [1, 4]: most robust antibody production
4 | MEFVAKLFKFFKDLLGKFLGNN [PSMα3, no formyl] | x | xx | ability to promote neutrophil lysis (human neutrophils [2]): reduced ability; ability to increase CD11b expression (human neutrophils [3]): strongly reduced ability; CD11b (human neutrophils [3]): xx; IL-8 secretion (human PMN): strongly reduced ability
5 | MEGLFNAIKDTVTAAINNDGAKLGTSIVSIVENGVGLLGKLFGF (S. aureus) [PSMβ1] |  |  | specific antibody production in vivo [1, 5]: strongest response
6 | MGIIAGIIKVIKSLIEQFTGK (S. aureus) [PSMα1] |  |  | specific antibody production in vivo [1, 4]: most robust antibody production; specific antibody production in vivo [1, 5]: strongest response
7 | fMAFVAKLFKFFKDLLGKFLGNN [#1] | xx |  | CD11b (human neutrophils [3]): x
8 | fMEFAAKLFKFFKDLLGKFLGNN (For-MEFAAKLFKFFKDLLGKFLGNN; listed as Staphylococcus aureus) [#3] |  | xx | 
9 | fMEFVAALFKFFKDLLGKFLGNN (For-MEFVAALFKFFKDLLGKFLGNN; listed as Staphylococcus aureus) [#4] | xx | xx | 
10 | fMEFVAKAFKFFKDLLGKFLGNN (For-MEFVAKAFKFFKDLLGKFLGNN; listed as Staphylococcus aureus) [#5] | xx |  | 
11 | fMEFVAKLFAFFKDLLGKFLGNN [#7] |  | xx | 
12 | fMEFVAKLFKFFADLLGKFLGNN (For-MEFVAKLFKFFADLLGKFLGNN; listed as Staphylococcus aureus) [#10] | x | xx | CD11b (human neutrophils [3]): xx
13 | fMEFVAKLFKFFKALLGKFLGNN [#11] |  | xx | 
14 | fMEFVAKLFKFFKDLLAKFLGNN [#14] |  | xx | 
15 | fMEFVAKLFKFFKDLLGAFLGNN [#15] | xx | xx | 
16 | fMEFVAKLFKFFKDLLGKFLGAN [#19] | xx | xx | ability to promote neutrophil lysis (human neutrophils [2]): greatest reduction; ability to increase CD11b expression (human neutrophils [3]): greatest reduction; CD11b (human neutrophils [3]): xx; IL-8 secretion (human PMN): greatest reduction
17 | fMEFVAKLFKFFKDLLGKFLGNA [#20] | x | xx | CD11b (human neutrophils [3]): x
